Three molecules from US10294476B2, “NEAT1 as a prognostic marker and therapeutic target for prostate cancer” (CORNELL UNIVERSITY, priority 2014, dated 2019) can be followed below.

Assay type in all cases: cell-based
For one experiment, the system named is NEAT1. Nature of the experiment: NEAT1 expression (qRT-PCR) in treated prostate cancer cell lines. Particulars: for NEAT1 expression: VCaP cells. As for the experimental part: Cell culture and treatments: LnCaP and PC3 cells were grown in RPMI 1640 (Invitrogen) and supplemented with 10% fetal bovine serum (FBS) and 1% penicillin-streptomycin. RWPE1 cells were grown in Keratinocyte Serum Free Medium (K-SFM), Kit (Gibco, #17005-042). VCaP and DU145 cells were grown in DMEM (Invitrogen) and supplemented with 10% fetal bovine serum (FBS) with 1% penicillin streptomycin. NCI-H660 cells were grown in RPMI 1640 supplemented with 0.005 mg/ml insulin, 0.01 mg/ml transferrin, 30 nM sodium selenite, 10 nM hydrocortisone, 10 nM β-estradiol, 5% FBS, 1% penicillin-streptomycin and an extra 2 mM of L-glutamine (for a final concentration of 4 mM). For cell treatments in several experiments, the inventors used 10-100 nM β-estradiol (Sigma Aldrich), 10 μM Enzalutamide (Astellas), 10 μM bicalutamide (Sigma Aldrich), 1-10 nM R1881 (PE Biosystems), 10-100 nM 4-hydroxy tamoxifen (4OHT) (Sigma Aldrich), 1-10 μM ICI […] (Tocris Bioscience).
RNA isolation, cDNA synthesis and PCR experiments: Total RNA was isolated from frozen prostate tissue samples (for qPCR) and cell lines (for transcriptome sequencing and qPCR) using Trizol (Invitrogen) with DNase I digestion according to manufacturer's instructions. RNA integrity was verified on an Agilent Bioanalyzer 2100 (Agilent Technologies). cDNA was synthesized from total RNA using Superscript III (Invitrogen) and random primers (Invitrogen). Quantitative RT-PCR was performed using Power SYBR Green Mastermix (Applied Biosystems) on an Applied Biosystems 7900 Fast Real Time PCR machine. All primers were designed using Primer 3 and synthesized by Integrated DNA Technologies.
To test this hypothesis in vitro, the inventors evaluated the effect of anti-estrogens and anti-androgens on NEAT1 levels in prostate cancer cell lines.
In general terms: Real-time PCR tracks product formation cycle by cycle.

The subject of experiment [1] is VCaP cells. Nature of the experiment: Colony-forming assay in NEAT1-overexpressing VCaP cells. Particulars: NEAT1-overexpressing VCaP cells with vs without E2 (10 nM), 21 days. As for the experimental part: Soft agar assays were performed in both VCaP and VCaP NEAT1 cells. Colonies were monitored over a period of 21 days. […] These in vitro assays establish an oncogenic role for NEAT1.

In a further experiment the test system is NEAT1 promoter. Nature of the experiment: NEAT1 promoter luciferase reporter assay. The note with it: VCaP cells with ERα expression, -/+ E2 (10 nM) 24 hr. An excerpt: Luciferase reporter assays: For ERE luciferase assays, VCaP cells were transiently transfected with the (ERE)3-5V40-luc reporter plasmid and/or ERα and/or AR as well as an internal control construct pRL harboring the renilla luciferase gene. VCaP cells were also transfected with empty vector or NEAT1 promoter (1+2) luciferase reporter constructs alone or with ERα as well as an internal control construct pRL harboring renilla luciferase gene. In order to determine the PSMA reporter activity, 293T cells and PC3 cells were co transfected with empty vector or PSMA luc and Renilla-luc reporter genes alone or with NEAT1, NEAT1+ERα, or NEAT1+AR.
[…] At 48 h cells were lysed with passive lysis buffer and luciferase activities were measured using the dual luciferase system (#E1910, Promega) and normalized with renilla luciferase activity.
The inventors inspected our ERα ChIP-seq data in VCaP ERα and NCI-H660 cells and identified two ERα binding sites on the NEAT1 promoter (FIG. 2d). […] ERα recruitment to specific regions of the NEAT1 promoter was independently validated by ERα ChIP in VCaP, VCaP ERα and NCI-H660 cells (FIG. 2e) using specific primers encompassing ERα binding sites in the NEAT1 promoter. […]
(In general: A reporter such as luciferase makes a cellular process visible.)

The subject of experiment [2] is VCaP cells. Nature of the experiment: Cell invasion assay (CHEMICON kit). Particulars: E2 (10 nM), 48 hrs. As for the experimental part:
Invasion assay: The CHEMICON cell invasion assay kit (EMD MIlipore) was used for determining the cell invasion. Cells were serum-starved for 48 hours and then seeded at a density of 2×10^5 cells/well in the upper well of the invasion chamber. 500 μl of phenol res free DMEM media supplemented with 8% charcoal stripped serum and 10 nM E2 was added to the lower chamber. After 48-hour incubation, the invaded cells were stained by dipping the inserts in the staining solution for 20 minutes. The stained cells were then dissolved in 10% acetic acid and transferred to a 96-well plate for colorimetric reading of OD at 560 nm.

[3] abbreviates: ERα antagonist alone for longer periods.
Setting [4] is: ERα antagonist in combination with E2 (10 nM).

In the case of `C[C@]12CC[C@@H]3c4ccc(O)cc4C[C@@H](CCCCCCCCC[S+]([O-])CCCC(F)(F)C(F)(F)F)[C@H]3[C@@H]1CC[C@@H]2O` (some centres unmarked) [ICI 182,720], the NEAT1 expression entry with NEAT1 (setting [3]) is on record as “enhance NEAT1 expression”; with NEAT1 (setting [4]), “constrained”.

In the case of 4-hydroxy tamoxifen [4OHT], the NEAT1 expression entry in the experiment on NEAT1 (setting [3]) is “enhance NEAT1 expression”; in the experiment on NEAT1 (setting [4]), “constrained”.

Turning to β-estradiol [E2], the NEAT1 transcript levels result in the experiment with NEAT1 (panel of prostate cancer cell lines, ERα overexpression and E2 treatment (10 nM), different time points) is given as “upregulated NEAT1 transcript levels in a time-dependent manner”. In addition, in the experiment with VCaP cells [1], the number of colonies entry is reported as “significantly increased the number of colonies”. Besides, the NEAT1 promoter activity entry in the experiment on NEAT1 promoter was “further enhanced”. The invasive potential result with VCaP cells [2] is given as “ligand-dependent modulation of invasive potential”.
